According to patent US9447157B2, “Nitration shielding peptides and methods of use thereof” (Augusta University Research Institute, Inc., priority 2013, dated 2016):

Tested on: Pulmonary artery smooth muscle cells (PASMC)
Experiment: PASMC phenotype markers (Western blot, immunocytochemistry)
Assay type: cell-based, lamb
Conditions: SIN-1 500 μM 48 h
Procedure: Cells were prepared as previously described (Sud, N., et al., American Journal of Physiology 293, L1444-1453 (2007); Sharma, S., et al., American Journal of Physiology 294, L46-56 (2008)). Briefly, the cellular protein extracts were prepared by homogenizing the cells in lysis buffer (50 mM Tris-HCl, pH 7.6, 0.5% Triton X-100, and 20% glycerol) containing Halt protease inhibitor cocktail (Pierce, Rockford, Ill.). The extracts were then clarified by centrifugation (20,000 g for 20 min at 4° C.). The supernatant fractions were assayed for protein concentration using the Bio-Rad DC Protein Assay (Bio-Rad Laboratories, Hercules, Calif.) and used for Western blot analysis. Similarly, peripheral lung tissue from the control lambs and the lambs with pulmonary hypertension secondary to increased pulmonary blood flow (shunt) was prepared as described earlier (Aggarwal, S., et al., Journal of Cellular Physiology (2011)). Cell extracts ([…]) were resolved using 4-20% Tris-SDS-Hepes PAGE, electrophoretically transferred to Immuno-Blot™ PVDF membrane (Bio-Rad Laboratories, Hercules, Calif.), and then blocked with 5% nonfat dry milk in Tris buffered saline. The membranes were then probed with antibodies against PKG-1α (1:500 dilution), anti-nitrotyrosine 247-PKG-1α (1:500), Calponin-1 (1:500 dilution), Vimentin (1:500 dilution), or MYH (1:500 dilution). Reactive bands were visualized using chemi-luminescence (Pierce Laboratories, Rockford, Ill.) on a Kodak 440CF image station. The band intensity was quantified using Kodak 1D image processing software. The protein expression was normalized by re-probing with anti β-actin (1:2000).
Semi-confluent PASMC grown on a coverslip in a 6-well plate were transfected with a mammalian expression plasmid containing either a wild-type (WT)- or Y247F-PKG-1α cDNA. After 20 h, the cells were serum starved (1% FBS) for 4 h then exposed or not to SIN-1 (500 μM) for 48 h. The cells were washed with PBS, methanol fixed (5 min), and permeabilized in 0.1% PBS-Tween (20 min). […] The cells were rinsed 3× with PBS, and the coverslips were mounted on the slides with ProLong Gold Antifade and analyzed with the use of a Nikon Eclipse TE 300 inverted fluorescent microscope with a 60× oil objective and a Hamamatsu digital camera.
To assess the effect of nitration on pulmonary arterial smooth muscle cell (PASMC) phenotype, PASMC were transiently transfected with expression plasmids containing WT-PKG-1α, Y247F-PKG-1α, or PDEST40 (as a control) for 20 h. Cells were then exposed or not to SIN-1 (500 μM, 48 h) and the effect on synthetic and contractile markers determined. The levels of myosin heavy chain (MYH, FIG. 18A), Calponin-1 (FIG. 18B), and Vimentin (FIG. 18C) were determined. […]

Substance: 3-morpholinosydnonimine N-ethylcarbamide [SIN-1]
- PCNA staining (WT-PKG-1α expressing PASMC): increased
- SM-22α expression (WT-PKG-1α expressing PASMC): attenuated
- Expression of contractile markers MYH and Calponin-1 (WT-PKG-1α transfected PASMC): decreased
- Expression of proliferative marker Vimentin (WT-PKG-1α transfected PASMC): increased
